Experimental data from ChEMBL document CHEMBL6177965, “Sealgamide: An Antitrypanosomal Lipopeptide Isolated from a Marine Okeania sp. Cyanobacterium” (J Nat Prod, 2025).

How the values were obtained:
[1] = tested on: Trypanosoma brucei rhodesiense; assay: Antitrypanosomal activity against Trypanosoma brucei rhodesiense IL-1501 incubated for 69 hrs by Alamar blue staining based analysis; type: functional, organism-based; conditions: IL-1501, 69 h
HeLa = assay: Cytotoxicity against human HeLa cells assessed as inhibition of cell growth incubated for 72 hrs by MTT assay; type: functional, cell-based
Plasmodium falciparum = assay: Antimalarial activity against Plasmodium falciparum 3D7 infected in RBC incubated for 72 hrs by LDH assay; type: functional, organism-based; conditions: 3D7, Erythrocyte

Row | SMILES | IC50 [1] [nM] | IC50 (HeLa) [nM] | IC50 (Plasmodium falciparum) [nM]
1 | CCC[C@@H](C[C@@H](CC(=O)N(C)[C@@H](C(=O)N[C@H](C)C(=O)N[C@H](CC(C)C)C(=O)N(C)[C@@H](CC(C)C)C(=O)N[C@H](C(=O)N(C)[C@H](C(=O)N(C)[C@@H](CCC(N)=O)C(=O)N[C@@H](Cc1ccccc1)C(=O)N(C)[C@@H](CCC(N)=O)C(=O)N(C)[C@@H](Cc1ccc(OC)cc1)C(=O)O)C(C)C)[C@@H](C)O)[C@@H](C)CC)OC)OC | 2900 | > 30000 | > 25000
2 | CCC[C@@H](C[C@@H](CC(=O)N(C)[C@@H](C(=O)N(C)[C@H](C)C(=O)N[C@H](CC(C)C)C(=O)N(C)[C@@H](CC(C)C)C(=O)N[C@H](C(=O)N(C)[C@H](C(=O)N(C)[C@@H](CCC(N)=O)C(=O)N[C@@H](Cc1ccccc1)C(=O)N(C)[C@@H](CCC(N)=O)C(=O)N(C)[C@@H](Cc1ccc(OC)cc1)C(=O)OC)C(C)C)[C@@H](C)O)[C@@H](C)CC)OC)OC | 650 | > 30000 | 2100
3 | N=C(N)c1ccc(OCCCCCOc2ccc(C(=N)N)cc2)cc1 [PENTAMIDINE] | 9 |  | 
